Read-outs that look alike come from different tables or passages of the source. Where no end group is shown, it is not given here.
Experiments:
[1] = tested on: gastric emptying in conscious rats; settings: for Inhibition of gastric emptying (in words): conscious rat model
Excerpt: Peptide compounds of the present invention may be evaluated for amylin agonist activity using the methods of measuring the rate of gastric emptying disclosed in, for example, Young et al., Diabetologia, 38(6):642-648 (1995). In a phenol red method, which is described in Example D below, conscious rats receive by gavage an a caloric gel containing methyl cellulose and a phenol red indicator. Twenty minutes after gavage, animals are anesthetized using halothane, the stomach exposed and clamped at the pyloric and lower esophageal sphincters, removed and opened into an alkaline solution. Stomach content may be derived from the intensity of the phenol red in the alkaline solution, measured by absorbance at a wavelength of 560 nm. In a tritiated glucose method, conscious rats are gavaged with tritiated glucose in water. The rats are gently restrained by the tail, the tip of which is anesthetized using lidocaine. Tritium in the plasma separated from tail blood is collected at various timepoints and detected in a beta counter. Test compounds are normally administered about one minute before gavage.
Phenol Red Gastric Emptying Assay:
Gastric emptying was measured using a modification (Plourde et al., Life Sci. 53:857-862 (1993)) of the original method of Scarpignato et al. (Arch. Int. Pharmacodyn. Ther. 246:286-295 (1980)). Conscious rats received by gavage. 1.5 mL of an a caloric gel containing 1.5% methyl cellulose (M-0262, Sigma Chemical Co., St. Louis, Mo.) and 0.05% phenol red indicator. Twenty minutes after gavage, rats were anesthetized using 5% halothane, the stomach exposed and clamped at the pyloric and lower esophageal sphincters using artery forceps, removed and opened into an alkaline solution which was made up to a fixed volume. Stomach content was derived from the intensity of the phenol red in the alkaline solution, measured by absorbance at a wavelength of 560 nm. […] In other experiments, particulate gastric contents were centrifuged to clear the solution for absorbance measurements. Where the diluted gastric contents remained turbid, the spectroscopic absorbance due to phenol red was derived as the difference between that present in alkaline versus acidified dilutent.
In separate experiments on 7 rats, the stomach and small intestine were both excised and opened into an alkaline solution. […] Percent gastric emptying contents remaining=(absorbance at 20 min)/(absorbance at 0 min). For those compounds for which ED50 data is presented, dose response curves for gastric emptying were fitted to a 4-parameter logistic model using a least-squares iterative routine (ALLFIT, v2.7, NIH, Bethesda, Md.) to derive ED50 s. Because ED50 is log-normally distributed, it is expressed ± standard error of the logarithm. Pairwise comparisons were performed using one-way analysis of variance and the Student-Newman-Keuls multiple comparisons test (Instat v2.0, GraphPad Software, San Diego, Calif.) using P<0.05 as the level of significance.
As a reference point for dose response studies, rat amylin (Bachem, Torrance, Calif.) dissolved in 0.15M saline, was administered as a 0.1 mL subcutaneous bolus in doses of 0, 0.01, 0.1, 1, 10 or 100 μg 5 minutes before gavage in Harlan Sprague Dawley (non-diabetic) rats fasted 20 hours and diabetic BB rats fasted 6 hours.

[2] = in vivo in rats, rabbits and humans with Paget's disease; cited from earlier work

Adrenomedullin (YRQSMNNFQGLRSFGCRFGTCTVQKLAHQIYQFTDKDKDNVAPRSKISPQGY; ends and bridges not checked; cysteine pairing not given here; UniProt P35318 95-146, looked up)
Inhibition of gastric emptying (in words) ([1]; highest doses (100 μg)): does not inhibit gastric emptying

amylin (KCNTATCATQRLANFLVHSSNNFGAILSSTNVGSNTY-NH2; not fully specified (bridges); cysteine pairing not given here; UniProt P10997 34-70, looked up) [37 amino acid peptide hormone, C-terminus amidated, cysteines 2 and 7 cross-linked; rat or human in b378]
Inhibition of gastric emptying (in words) ([1]; dose response): dose-dependently inhibit gastric emptying | Lowering of plasma calcium [2]: up to 20%

rat amylin
Inhibition of gastric emptying (in words) ([1]; dose response): dose-dependent suppression of gastric emptying | ED50 for inhibition of gastric emptying ([1]; diabetic BB rats fasted 6 hours, subcutaneous bolus 5 minutes before gavage): 2.2 µg | Suppression of gastric emptying ([1]; diabetic rats, 10 μg subcutaneous): complete | Example D ED50 ([1]; inhibition of gastric emptying, conscious rats, phenol red, 20 min after gavage): 0.26 µg | Suppression of gastric emptying ([1]; normal HSD rats, 1 μg subcutaneous): complete

rat calcitonin (CGNLSTCMLGTYTQDLNKFHTFPQTSIGVGAP; ends and bridges not checked; cysteine pairing not given here; UniProt P01257 85-116, looked up)
Inhibition of gastric emptying (in words) ([1]; dose response): dose-dependently inhibit gastric emptying

salmon calcitonin
Inhibition of gastric emptying (in words) ([1]; dose response): dose-dependently inhibit gastric emptying
